# From patent publication US20230270810A1, “VETERINARY COMPOSITIONS FOR THE TREATMENT AND/OR PREVENTION OF PROTOZOAN DISEASES AND METHODS OF PREPARATION THEREOF” (ADIFEED SP. Z O. O., priority 2020, published 2023)
# pIC50: −log10 of the molar value.
# Experiments:
# Trypanosoma cruzi = settings: read-out: inhibitory effect on 50% of the population (IC50); cited from earlier work
# [1] = test system: Trypanosoma cruzi and Leishmania chagasi; settings: cited from earlier work
# Trichomonas hominis = assay: in vitro protozoicidal test, LD50/LD100 within 3 minutes; format: cell-based
# Gregarina blattarum = assay: in vitro protozoicidal test, LD50/LD100 within 3 minutes, gregarines isolated from cockroaches; format: cell-based; settings: in Ringer's solution
# Source text: For in vitro tests of antiprotozoal activity of the composition five reference organisms representing taxonomic groups to which pathogenic protozoa belong were selected, i.e: • Amoeba proteus—Chaos diffluens—a protozoan of the order Euamoebida, belonging to fifth supergroup of the Amoebozoa, living in waters. • Paramecium caudatum—a slipper animalcule representing the Ciliata orachs, living in waters. • Gregarina blattarum—gregarine isolated from cockroaches, representing the phylum Apicomplexa, living in the digestive tracts or body cavities of invertebrates. • Euglena gracilis—a protozoan living in water, representing the flagellates—Mastigophora, family Euglenaceae. • Trichomonas hominis—a protozoan living in the human colon, representing the Trichomonadidae.
# The gregarines were isolated from the cockroaches and, after being placed on a watch slide, were treated with the products at different concentrations in Ringer's solution. Each sample contained ten individuals. […]
# The mixture was heated at the boiling point, until the colour changed, under reflux for 20 minutes. […] Compositions I and II were then analysed for their antiprotozoal properties. […]
# Individual acids, catalyst solution, essential oil and metal salt solutions were additionally analysed for protozoal properties. […] Observation under a fluorescence microscope with phase contrast was carried out.
# Amoeba proteus = assay: in vitro protozoicidal test, LD50/LD100 within 3 minutes; format: cell-based
# [2] = test system: Trypanosoma cruzi and different Leishmania species; settings: cited from earlier work
# [3] = death of 50% of individuals within 3 minutes
# [4] = death of 100% of individuals within 3 minutes
compound,measurement,setting,value
CC1CS(=O)(=O)CCN1/N=C/c1ccc([N+](=O)[O-])o1 (stereo not drawn) [Nifurtimox],pIC50,Trypanosoma cruzi,5.22
same,IC50,[1],0.3 to 0.4 µg/mL
"Cc1ncc([N+](=O)[O-])n1CCO [M, metronidazole]",LD50,Trichomonas hominis; [3],0.05%
same,LD100,Trichomonas hominis; [4],0.1%
same,LD50,Gregarina blattarum; 50% of individuals within 3 minutes,0.13%
same,LD100,Gregarina blattarum; 100% of individuals within 3 minutes,0.3%
same,LD50,Amoeba proteus; [3],0.3%
same,LD100,Amoeba proteus; [4],0.5%
O=C(Cn1ccnc1[N+](=O)[O-])NCc1ccccc1 [benznidazole],values obtained (in vitro antiprotozoal activity),[2],45.02 µg/mL
